Structures can show the parent of a compound that is named as a salt.

Experiment [1] has as its target T1, human EP1 (Homo sapiens, UniProt P34995).
T1 construct: expressed in transfected cells
T1 sequence (P34995 1-402): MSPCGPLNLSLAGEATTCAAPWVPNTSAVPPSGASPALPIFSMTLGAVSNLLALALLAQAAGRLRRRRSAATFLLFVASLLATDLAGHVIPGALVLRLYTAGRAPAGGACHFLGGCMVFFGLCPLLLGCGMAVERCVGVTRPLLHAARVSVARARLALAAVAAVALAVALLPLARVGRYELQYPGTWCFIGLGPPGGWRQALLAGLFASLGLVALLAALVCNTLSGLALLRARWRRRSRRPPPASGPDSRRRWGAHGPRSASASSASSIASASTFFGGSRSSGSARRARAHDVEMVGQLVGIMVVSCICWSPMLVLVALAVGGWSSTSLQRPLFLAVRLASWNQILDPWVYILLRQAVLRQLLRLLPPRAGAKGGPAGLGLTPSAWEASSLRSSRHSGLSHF
Kind of experiment: In vitro binding to human EP1 ([3H]-PGE2 displacement, membranes). As to conditions: HEK293 membranes, n = 1, read-out: hEP1, Ki. As to the method:
(§1) hEP1 and hEP4 membranes are prepared from recombinant HEK293 cells stably expressing human EP1 (Genbank accession number AY275470) or EP4 (Genbank accession number AY429109) receptors. hEP2 and hEP3 membranes are prepared from HEK293 cells transiently transfected with EP2 (Genbank accession number AY275471) or EP3 (isoform VI: Genbank accession number AY429108) receptor plasmids. Frozen cell pellets are homogenized in homogenization buffer using a Teflon/glass homogenizer. Membrane protein is aliquoted and quick frozen on dry ice prior to storage at −80° C. […]
(§2) Kd values for [3H]-PGE2 binding to each receptor are determined by saturation binding studies or homologous competition. […] Nonspecific binding is calculated by comparing binding in the presence and absence of 2 μM of PGE2. The membranes are harvested by filtration (TomTek harvester), washed 4 times with cold buffer (10 mM MES pH 6.0 with KOH, 10 mM MgCl2), dried in a 60° C. oven, and the radioactivity is quantified as counts per minute (CPM) using a TopCount detector. Percent specific binding is calculated as the percent of the binding in the absence of any inhibitor, corrected for binding in the presence of 2 uM of PGE2. […] Results are expressed as the geometric mean±standard deviation; n=number of independent determinations. The standard deviation is calculated by the delta method, being SDlog Ki×geometric mean×ln(10).

Experiment [2] addresses T2, human EP2 (Homo sapiens, UniProt P43116).
T2 construct: expressed in transfected cells; host or cells: HEK293 (transient)
Description: In vitro binding to human EP2 ([3H]-PGE2 displacement, membranes). To be noted: HEK293 membranes, n = 1, read-out: hEP2, Ki. As to the method:
as §1, §2

In experiment [3] the target is T3, human EP3 (isoform VI) (Homo sapiens, UniProt P43115).
T3 sequence (P43115 1-359): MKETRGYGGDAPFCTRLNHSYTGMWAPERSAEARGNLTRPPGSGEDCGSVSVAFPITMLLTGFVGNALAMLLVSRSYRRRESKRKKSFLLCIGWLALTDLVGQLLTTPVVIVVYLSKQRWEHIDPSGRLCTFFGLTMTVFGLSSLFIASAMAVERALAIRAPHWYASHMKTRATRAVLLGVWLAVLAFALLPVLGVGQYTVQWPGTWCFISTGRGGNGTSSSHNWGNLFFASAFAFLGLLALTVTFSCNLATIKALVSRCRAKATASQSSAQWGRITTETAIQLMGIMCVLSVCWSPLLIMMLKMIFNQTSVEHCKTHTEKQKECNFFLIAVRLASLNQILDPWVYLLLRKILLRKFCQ
Description: In vitro binding to human EP3 ([3H]-PGE2 displacement, membranes). As to the method:
as §1, §2

The target of experiment [4] is T4, human EP4 (Homo sapiens, UniProt P35408). Kind of experiment: In vitro binding to human EP4 ([3H]-PGE2 displacement, membranes). Set-up: expressed in transfected cells. As to conditions: HEK293 membranes, geometric mean ± SD, n = 6, read-out: hEP4, Ki. As to the method: as §1, §2
T4 sequence (P35408 whole entry): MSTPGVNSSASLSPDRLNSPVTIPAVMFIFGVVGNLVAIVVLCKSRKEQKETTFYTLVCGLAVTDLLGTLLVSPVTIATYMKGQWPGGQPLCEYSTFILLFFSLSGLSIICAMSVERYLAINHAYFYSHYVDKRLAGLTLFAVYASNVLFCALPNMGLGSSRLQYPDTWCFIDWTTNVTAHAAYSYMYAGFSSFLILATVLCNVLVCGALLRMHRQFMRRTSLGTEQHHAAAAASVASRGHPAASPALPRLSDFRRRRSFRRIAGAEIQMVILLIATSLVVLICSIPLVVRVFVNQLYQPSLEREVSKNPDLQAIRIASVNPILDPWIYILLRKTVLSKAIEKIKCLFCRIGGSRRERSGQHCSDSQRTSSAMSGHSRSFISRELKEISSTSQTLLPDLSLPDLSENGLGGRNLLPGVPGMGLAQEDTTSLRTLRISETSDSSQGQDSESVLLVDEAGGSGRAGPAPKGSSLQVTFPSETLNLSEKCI
Experiment [5] concerns the target T4, human EP4. Description: In vitro human EP4 functional antagonist activity (inhibition of PGE2-stimulated cAMP production, HTRF). Format: cell-based. To be noted: HEK293 cells expressing human EP4, EC80 of PGE2 (0.188 nM); geometric mean ± SD, n=6; read-out: IC50 measured at human EP4 (PGE2-stimulated cAMP production). Set-up: expressed in transfected cells. As to the method: Assays are conducted in recombinant HEK293 cells stably expressing human EP4 receptor. The cell lines are maintained by culturing in DMEM with high glucose and pyridoxine hydrochloride (Invitrogen) supplemented with 10% fetal bovine serum (FBS), 1 mM sodium pyruvate, 10 mM HEPES, […] and 2 mM L-glutamine. Confluent cultures are grown at 37° C. in an atmosphere containing 5% CO2. Cells are harvested using 2.5% Trypsin-EDTA, suspended in freeze media (FBS with 6% DMSO) at 10^7 cells/mL and aliquots are stored in liquid nitrogen. Just before assay, cells are thawed in DMEM, centrifuged, and resuspended in cAMP buffer.
The inhibition of PGE2-stimulated cAMP production by EP4 antagonists is measured using HTRF; (Cisbio catalog #62AM4PEB). […] The HTRF signal is detected using an EnVision® plate reader (Perkin-Elmer) to calculate the ratio of fluorescence at 665 nm to 620 nm. […] Results are expressed as the geometric mean±standard deviation; n=number of independent determinations. The standard deviation is calculated by the delta method, being SDlog Ki×geometric mean×ln(10).

For experiment [6], the target named is T4, human EP4. Kind of experiment: In vitro antagonist activity in human whole blood (reversal of PGE2 inhibition of LPS-induced TNFα production). The class given is cell-based. Set-up: Blood is collected from normal volunteer donors into sodium heparin vacutainer tubes; from tissue; host or cells: human whole blood from volunteer donors. To be noted: 10 μg/mL LPS + 10 nM PGE2, 20-24 hours, geometric mean ± SD, n=6, read-out: IC50 in human blood TNFα induction assay. From the text: The inhibitory effects of PGE2 on LPS-induced TNFα production from macrophages/monocytes are believed to be mediated by EP4 receptors (See Murase, A., et al., Life Sciences, 82:226-232 (2008)). The ability of the compound of Example 8 to reverse the inhibitory effect of PGE2 on LPS-induced TNFα production in human whole blood is an indicia of functional activity.
Blood is collected from normal volunteer donors into sodium heparin vacutainer tubes. Donors have not taken NSAIDs or celecoxib within 48 hours or glucocorticoids within two weeks of the donation. All tubes/donor are pooled into 50 mL Falcon conical centrifuge tubes and 98 μL/well is distributed into 96-well tissue culture plates (Falcon 3072). […] TNFα levels in 2 μL plasma are quantified by a commercially available enzyme immunoassay (R&D Systems DY210), using Immulon 4 HBX plates (Thermo 3855) and 3,3′,5,5′ tetramethylbiphenyl-4,4′-diamine substrate (KPL 50-76-03). The plates are read at A450-A650 on a plate reader (Molecular Devices Versamax) using SOFTmaxPRO (v. 4.3.1) software. IC50s are calculated using Graphpad Prism (v. 4) nonlinear regression, sigmoidal dose response curve fitting. Results are expressed as the geometric mean±standard deviation; n=number of independent determinations The standard deviation is calculated by the delta method, being SDlog Ki×geometric mean×ln(10).

T2 sequence (P43116 whole entry): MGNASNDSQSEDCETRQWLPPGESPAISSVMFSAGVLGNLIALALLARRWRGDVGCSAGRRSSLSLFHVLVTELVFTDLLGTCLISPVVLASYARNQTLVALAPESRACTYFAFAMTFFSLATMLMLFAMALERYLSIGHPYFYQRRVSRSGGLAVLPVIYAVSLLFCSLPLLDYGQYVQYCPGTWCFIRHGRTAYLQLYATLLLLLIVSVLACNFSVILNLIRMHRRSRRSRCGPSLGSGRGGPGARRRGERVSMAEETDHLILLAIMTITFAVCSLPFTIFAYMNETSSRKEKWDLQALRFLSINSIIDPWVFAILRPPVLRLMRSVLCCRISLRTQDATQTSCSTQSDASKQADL

On to `C[C@H](NC(=O)[C@H]1CC(F)(F)CCN1CCOc1ccccc1)c1ccc(C(=O)O)cc1` [Example 8, 4-((1S)-1-(((2R)-1-(2-phenoxyethyl)-4,4-difluoropiperidin-2-carbonyl)amino)ethyl)benzoic acid hydrochloride], for which the Ki – broadly, the dissociation constant of the complex between target and ligand, obtained from inhibition or displacement – was above 12500 nM in experiment [1], 956 nM in experiment [2], above 14800 nM in experiment [3] and 3.68 ± 3.32 nM in experiment [4]. Further, the IC50 – broadly, the concentration that gives 50% inhibition – is 1.76 ± 1.51 nM in experiment [5] and 78.2 ± 61 nM in experiment [6].

The values above are taken from patent US9776964B2, “Phenoxyethyl cyclic amine derivatives and their activity as EP4 receptor modulators” (Eli Lilly and Company, priority 2013, dated 2017).
